# Measurements: publication PMC8044163, “Vitamin D and lumisterol derivatives can act on liver X receptors (LXRs)” (Scientific Reports, 2021)
# Where two headings read alike, the source gives them in different places.
# Legend:
# genes downstream of LXR = assay: qPCR of genes downstream of LXR in murine dermal fibroblasts; type: cell-based, mouse; conditions: 10^–7 M, 24 h
# Description: All animal studies followed guidelines outlined by the NIH Guide for the Care and Use of Laboratory Animals and protocols were approved by the Institutional Animal Care and Use Committee at the NIEHS or the UAB. The study was carried out in compliance with the ARRIVE guidelines (http://www.nc3rs.org.uk/page.asp?id=1357). Skin samples from newborn C57BL/6 mice were collected at the NIEHS. Dermal fibroblasts were isolated from the skin of newborn mice, 1–2 day old. Briefly, we followed the protocols described previously. The skin was washed in PBS, cut into smaller pieces and incubated in 2.4 U/ml of dispase II (Roche) overnight at 4 °C. The dermis was separated from the epidermis and incubated in 0.1% collagenase (Roche) at 4 °C overnight. Next day, it was cut into smaller pieces and incubated for 1 h in 0.25% Trypsin (CellGrow) at 37 °C. Single cell suspension was prepared by pipetting and draining through a cell strainer. After centrifugation, cell pellets were suspended in DMEM medium containing 10% charcoal-stripped fetal bovine serum (cFBS), mouse fibroblasts growth factor (FGF) and 1% antibiotic, and inoculated into tissue culture dishes (Midwest Scientific, TPP). Cells, in early passages, from different mice were pooled together to provide representative samples for experiments. Fibroblasts were cultured in Petri dishes (10 cm in diameter) in DMEM and 10% cFBS and triplicate semi-confluent cultures were treated as described.
# RNA isolated from either fibroblasts, HaCaT cells or brain was submitted for cDNA synthesis (High Capacity cDNA Reverse Transcription Kit with RNase Inhibitor, Applied Biosystems) following the manufacturers’ protocols. RT-PCR was carried out using Cyber green, in triplicates; as previously described. Approximately, 750 ng of cDNA was used for PCR reactions. GAPDH and CIC-B were used as internal controls. Primer sequences are listed in Supplementary Table 27. Data were analyzed using GraphPad Prism statistical software one way ANOVA or t-test, where appropriate; *p < 0.05; **p < 0.01; ***p < 0.001.
# LXRα = biological target: T1, LXRα (Homo sapiens, UniProt Q13133); assay: Ligand induced translocation of LXRα to the nucleus, immunofluorescence in HaCaT; type: cell-based; conditions: 10^−7 M, 24 h
# T1 construct: endogenous in cells; host or cells: HaCaT keratinocytes
# T1 sequence (Q13133 1-447): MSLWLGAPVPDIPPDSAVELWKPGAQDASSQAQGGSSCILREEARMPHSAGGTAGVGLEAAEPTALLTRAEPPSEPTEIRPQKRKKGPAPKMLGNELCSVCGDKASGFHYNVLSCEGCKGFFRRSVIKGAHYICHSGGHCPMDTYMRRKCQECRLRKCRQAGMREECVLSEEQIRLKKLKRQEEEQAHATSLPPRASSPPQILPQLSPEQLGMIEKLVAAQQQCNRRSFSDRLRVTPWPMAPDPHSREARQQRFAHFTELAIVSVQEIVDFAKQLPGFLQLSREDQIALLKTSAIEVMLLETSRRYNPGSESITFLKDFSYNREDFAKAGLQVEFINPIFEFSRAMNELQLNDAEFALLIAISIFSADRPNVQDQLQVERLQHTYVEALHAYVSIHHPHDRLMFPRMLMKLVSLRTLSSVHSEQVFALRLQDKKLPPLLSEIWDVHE
# Description: (§1) HaCaT cells were plated in DMEM plus 5% cFBS either on a sterile glass cover slip placed in a well of a 6-well plates for immunofluorescence (IF) assays or TPP Petri dishes for image-stream flow cytometry, and treated with 10^–7 M D3- or L3-hydroxyderivatives or 0.1% ethanol (vehicle) as a negative control was added to each well, and the cells were incubated for 12 or 24 h at 37 °C with 5% CO2. For IF the cells were fixed in 4% paraformaldehyde for 15 min, incubated in 0.5% Triton X-100 in phosphate-buffered saline (PBS) for 5 min, and washed 3 times in PBS. After blocking with 2% bovine serum albumin (BSA) in PBS for 1 h at room temperature, the cells were treated with an anti-LXRα antibody (Novus Biologicals, LLC, Centennial, CO) at 1:200 in PBS supplemented with 2% BSA overnight in 4 °C. After washing the slides were incubated with a mouse anti-rabbit IgG-FITC (Santa Cruz Biotechnology, Inc, Dallas, TX) at 1:200 dilution for 1.5 h at 37 °C. After washing the slides were mounted using propidium iodide (PI) (Vector Labs, Burlingame, California) as a nuclear counterstain. The slides were examined using a KEYENCE America BZ-X710 Fluorescence Microscope (Itasca, IL). The images were subsequently analyzed using the JACoP plugin for colocalization analysis with ImageJ[74]. Five separate high-power field (40×) images were converted to grayscale and analyzed for each condition. Manders’ coefficient (M1), calculated using a preset threshold, was used to quantify the degree of colocalization between PI and LXRα with 0 representing no colocalization, and 1 representing perfect colocalization.
# LXRα/β = assay: Ligand induced translocation of LXRα/β to the nucleus, imaging flow cytometry in HaCaT; type: cell-based, human; conditions: 10^–7 M, 12 h
# Description: as §1
# For Image Stream II (Amnis, Seattle, WA, USA) cytometer analyses, HaCaT cells were detached and processed as previously described. The cells were fixed with paraformaldehyde and permeabilized in methanol containing buffer[78],[79] and Hoechst stain (r37165, ThermoFisher) and rabbit antibodies to LXRα/β (sc 377260, AF 647, SantaCruz) or VDR (sc-13133, AF 488, SantaCruz) as described previously. Data were analyzed using IDEAS software (Amnis, Seattle, WA, USA).
# VDR = biological target: T2, VDR (Homo sapiens, UniProt P11473); assay: Translocation of VDR to the nucleus, imaging flow cytometry in HaCaT; type: cell-based; conditions: 10^–7 M, 12 h
# T2 construct: endogenous in cells; host or cells: HaCaT keratinocytes
# T2 sequence (P11473 1-427): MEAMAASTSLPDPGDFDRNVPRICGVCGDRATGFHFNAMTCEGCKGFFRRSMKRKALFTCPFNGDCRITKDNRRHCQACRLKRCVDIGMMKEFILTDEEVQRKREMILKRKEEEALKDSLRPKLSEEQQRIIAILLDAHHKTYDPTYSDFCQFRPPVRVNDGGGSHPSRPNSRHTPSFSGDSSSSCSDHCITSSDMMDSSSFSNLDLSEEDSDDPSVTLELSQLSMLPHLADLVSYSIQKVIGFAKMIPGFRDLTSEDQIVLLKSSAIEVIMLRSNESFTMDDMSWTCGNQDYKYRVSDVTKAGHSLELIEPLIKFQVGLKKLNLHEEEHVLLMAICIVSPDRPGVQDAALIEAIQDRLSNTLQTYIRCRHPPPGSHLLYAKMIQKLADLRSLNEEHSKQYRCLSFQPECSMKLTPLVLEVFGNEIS
# LBD of LXRβ = biological target: T3, LBD of LXRβ (Homo sapiens, UniProt P55055); assay: LanthaScreen TR-FRET LXRβ coactivator assay (LXR binding assay); type: biochemical
# T3 construct: purchased Thermo Fisher Scientific
# T3 sequence (P55055 222-460 limits assumed): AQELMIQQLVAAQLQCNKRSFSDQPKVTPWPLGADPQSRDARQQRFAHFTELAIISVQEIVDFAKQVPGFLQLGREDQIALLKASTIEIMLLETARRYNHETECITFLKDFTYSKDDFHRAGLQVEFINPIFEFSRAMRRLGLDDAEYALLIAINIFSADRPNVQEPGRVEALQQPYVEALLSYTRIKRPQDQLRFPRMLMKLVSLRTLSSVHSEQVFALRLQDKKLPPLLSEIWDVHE
# Description: (§2) Binding assays of graded concentrations of vitamin D3 or lumisterol hydroxyderivatives to LXRα/β were performed using the LanthaScreen TR-FRET LXRα/β Coactivator kit (Thermo Fisher Scientific, Inc., Waltham, MA) following the manufacture’s protocol. Briefly, after addition of LXRα/β-LBD to the derivatives, a mixture of peptide (Fluorescein-TRAP220/DRIP-2 for LXRα or Fluorescein-D22 for LXRβ) and antibody (Tb-anti-GST) was added to the reaction followed by incubation in room temperature for 2 h. TR-FRET ratio was calculated by dividing the emission at 520 nm by the emission at 495 nm using Synergy neo2 (BioTek, Winooski, VT).
# LBD of LXRα = biological target: T4, LBD of LXRα (Homo sapiens, UniProt Q13133); assay: LanthaScreen TR-FRET LXRα coactivator assay (LXR binding assay); type: biochemical
# T4 construct: after addition of LXRα/β-LBD to the derivatives; purchased Thermo Fisher Scientific
# T4 sequence (Q13133 209-447 limits assumed): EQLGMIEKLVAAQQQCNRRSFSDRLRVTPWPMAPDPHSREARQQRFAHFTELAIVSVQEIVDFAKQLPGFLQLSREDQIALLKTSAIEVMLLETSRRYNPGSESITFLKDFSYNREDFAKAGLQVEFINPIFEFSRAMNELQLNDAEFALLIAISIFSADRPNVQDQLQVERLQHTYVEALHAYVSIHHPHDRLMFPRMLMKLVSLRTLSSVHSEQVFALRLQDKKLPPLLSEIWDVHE
# Description: as §2
# [1] = agonist, average values, read-out: LXRβ EC50
# [2] = agonist, average values, read-out: LXRα EC50
smiles,measurement,setting,value
"C=C1/C(=C\C=C2/CCC[C@@]3(C)[C@H]2CC[C@@H]3[C@@](C)(O)CCCC(C)C)C[C@@H](O)C[C@@H]1O [1,20(OH)2D3]",ApoE (apolipoprotein E) expression,genes downstream of LXR,enhanced
same,Cyp7a1 expression,genes downstream of LXR,inhibited
same,"translocation of LXRα to the nucleus (immunofluorescence, Manders' coefficient)",LXRα,induced translocation
same,translocation of LXRα/β from the cytoplasm to the nucleus,LXRα/β,increased translocation
same,translocation of VDR from the cytoplasm to the nucleus,VDR,increased translocation
same,EC50,LBD of LXRβ; [1],270 nM
"CC(C)CCC[C@](C)(O)[C@H]1CC[C@H]2C3=CC=C4C[C@@H](O)CC[C@]4(C)[C@H]3CC[C@@]21C [20(OH)7DHC, reference compound]",Abcg5 expression,genes downstream of LXR,stimulated
same,Abcg8 expression,genes downstream of LXR,inhibited
same,ApoE (apolipoprotein E) expression,genes downstream of LXR,inhibited
same,Cyp7a1 expression,genes downstream of LXR,inhibited
same,Fas (fatty acid synthase) expression,genes downstream of LXR,stimulated
CC(C)CCC[C@](C)(O)[C@H]1CC[C@H]2C3=CC=C4C[C@@H](O)CC[C@@]4(C)[C@@H]3CC[C@@]21C [20(OH)L3],Abca1 expression,genes downstream of LXR,inhibited
same,Abcg8 expression,genes downstream of LXR,inhibited
same,ApoE (apolipoprotein E) expression,genes downstream of LXR,inhibited
same,Cyp7a1 expression,genes downstream of LXR,inhibited
same,Lpl (lipoprotein lipase) expression,genes downstream of LXR,inhibited
same,"translocation of LXRα to the nucleus (immunofluorescence, Manders' coefficient)",LXRα,induced translocation
same,translocation of LXRα/β from the cytoplasm to the nucleus,LXRα/β,increased translocation
same,translocation of VDR from the cytoplasm to the nucleus,VDR,increased translocation
same,EC50,LBD of LXRβ; [1],21 nM
same,EC50,LBD of LXRα; [2],1800 nM
"CC(C)CCC(O)C(C)(O)C1CCC2C3=CC=C4CC(O)CCC4(C)C3CCC21C (stereo not drawn) [20,22(OH)2L3]","translocation of LXRα to the nucleus (immunofluorescence, Manders' coefficient)",LXRα,induced translocation
same,translocation of LXRα/β from the cytoplasm to the nucleus,LXRα/β,increased translocation
same,translocation of VDR from the cytoplasm to the nucleus,VDR,increased translocation
same,EC50,LBD of LXRβ; [1],2000 nM
same,EC50,LBD of LXRα; [2],1500 nM
"C=C1CC[C@H](O)C/C1=C/C=C1\CCC[C@@]2(C)[C@H]1CC[C@@H]2[C@@](C)(O)CCCC(C)(C)O [20,25(OH)2D3]",EC50,LBD of LXRβ; [1],2100 nM
same,EC50,LBD of LXRα; [2],350 nM
CC(C)CCC(O)[C@@H](C)[C@H]1CC[C@H]2C3=CC=C4C[C@@H](O)CC[C@@]4(C)[C@@H]3CC[C@]12C (stereo partly drawn) [22(OH)L3],EC50,LBD of LXRβ; [1],14000 nM
same,EC50,LBD of LXRα; [2],640 nM
CC(CC[C@H](O)C(C)C)[C@H]1CC[C@H]2C3=CC=C4C[C@@H](O)CCC4(C)[C@@H]3CC[C@]12C (stereo partly drawn) [24(OH)L3],EC50,LBD of LXRβ; [1],1300 nM
same,EC50,LBD of LXRα; [2],3600 nM
CC(CCCC(C)(C)O)[C@H]1CC[C@H]2C3=CC=C4C[C@@H](O)CC[C@@]4(C)[C@@H]3CC[C@]12C (stereo partly drawn) [25(OH)L3],EC50,LBD of LXRβ; [1],1900 nM
same,EC50,LBD of LXRα; [2],140 nM
C[C@@H](CO)CCC[C@@H](C)[C@H]1CC[C@H]2C3=CC=C4C[C@@H](O)CC[C@@]4(C)[C@@H]3CC[C@]12C [(25R)-27(OH)L3],EC50,LBD of LXRβ; [1],550 nM
same,EC50,LBD of LXRα; [2],820 nM
C[C@H](CO)CCC[C@@H](C)[C@H]1CC[C@H]2C3=CC=C4C[C@@H](O)CC[C@@]4(C)[C@@H]3CC[C@]12C [(25S)-27(OH)L3],EC50,LBD of LXRβ; [1],1.3 nM
same,EC50,LBD of LXRα; [2],26 nM
"C=C1CC[C@H](O)C/C1=C/C=C1\CCC[C@]2(C)[C@@H]([C@H](C)CCCC(C)C)CC[C@@H]12 [D3, Vitamin D3, reference compound]",EC50,LBD of LXRβ,890 nM
same,EC50,LBD of LXRα,760 nM
"CC(C)CCC[C@@H](C)[C@H]1CC[C@H]2C3=CC=C4C[C@@H](O)CC[C@@]4(C)[C@@H]3CC[C@]12C [L3, lumisterol]",EC50,LBD of LXRβ; [1],110 nM
same,EC50,LBD of LXRα; [2],250 nM
